Assay results from PubChem BioAssay AID334 (DTP/NCI, 2004).
Where “and” joins values, the source holds several entries; their conditions need not be identical. Equal values may be shown once. Inconclusive results and toxic doses are left out.

System: CD2F1 mice, intracerebral P388 leukemia, median survival T/C%
Assay: NCI In Vivo Anticancer Drug Screen. Data for tumor model P388 Leukemia (intracerebral) in CD2F1 (CDF1) mice
Conditions: endpoint: median survival time, higher = longer survival
Description: The antitumor activity of compounds was measured in mice bearing transplantable tumors. Survival or tumor size were measured and the results are expressed as the measurement made in the treated group (T) divided by the measurement made in the vehicle treated control group (C). The tumor model used in this assay is P388 Leukemia (intracerebral) in CD2F1 (CDF1) mice

[1] = dose: 1.0 mg/kg/injection, schedule: Q01DX009 (ip), vehicle: saline
[2] = dose: 2.0 mg/kg/injection, schedule: Q01DX009 (ip), vehicle: saline
[3] = dose: 4.0 mg/kg/injection, schedule: Q01DX009 (ip), vehicle: saline
[4] = dose: 0.25 mg/kg/injection, schedule: Q01DX009 (ip), vehicle: saline
[5] = dose: 0.5 mg/kg/injection, schedule: Q01DX009 (ip), vehicle: saline

## Nc1nc2c(c(=O)[nH]1)N(C=O)C(CNc1ccc(C(=O)N[C@@H](CCC(=O)O)C(=O)O)cc1)CN2 (stereo not given in full)
dose: 128.0 mg/kg/injection, schedule: Q01DX005 (ip), vehicle: suspension in saline
  T/C: 98 % of control
dose: 256.0 mg/kg/injection, schedule: Q01DX005 (ip), vehicle: suspension in saline
  T/C: 97 % of control
dose: 512.0 mg/kg/injection, schedule: Q01DX005 (ip), vehicle: suspension in saline
  T/C: 100 % of control

## Nc1ccc2nc3ccc(N)cc3[n+](-c3ccccc3)c2c1
[1]
  T/C: 89 % of control
[2]
  T/C: 87 % of control
[3]
  T/C: 99 % of control
dose: 8.0 mg/kg/injection, schedule: Q01DX009 (ip), vehicle: saline
  T/C: 99 % of control

## CC[n+]1c(-c2ccccc2)c2cc(N)ccc2c2ccc(N)cc21
dose: 6.0 mg/kg/injection, schedule: Q01DX005 (ip), vehicle: saline
  T/C: 102 % of control
dose: 12.0 mg/kg/injection, schedule: Q01DX005 (ip), vehicle: saline
  T/C: 99 % of control and 106 % of control

## CC1(C)N=C(N)N=C(N)N1c1ccc(OCCOc2ccc(S(=O)(=O)F)cc2)c(Cl)c1
dose: 12.5 mg/kg/injection, schedule: Q04DX003 (ip), vehicle: saline
  T/C: 116 % of control
dose: 25.0 mg/kg/injection, schedule: Q04DX003 (ip), vehicle: saline
  T/C: 100 % of control
dose: 50.0 mg/kg/injection, schedule: Q04DX003 (ip), vehicle: saline
  T/C: 94 % of control

## COCC(O)Cn1ccnc1[N+](=O)[O-] (stereo not given)
dose: 32.0 mg/kg/injection, schedule: Q01DX009 (ip), vehicle: Klucel (hydroxypropylcellulose) (HPC)
  T/C: 113 % of control
dose: 64.0 mg/kg/injection, schedule: Q01DX009 (ip), vehicle: Klucel (hydroxypropylcellulose) (HPC)
  T/C: 102 % of control
dose: 128.0 mg/kg/injection, schedule: Q01DX009 (ip), vehicle: Klucel (hydroxypropylcellulose) (HPC)
  T/C: 96 % of control
dose: 256.0 mg/kg/injection, schedule: Q01DX009 (ip), vehicle: Klucel (hydroxypropylcellulose) (HPC)
  T/C: 102 % of control
dose: 512.0 mg/kg/injection, schedule: Q01DX009 (ip), vehicle: Klucel (hydroxypropylcellulose) (HPC)
  T/C: 102 % of control

## C[C@]1(O)CC[C@H]2[C@@H]3CCC4=CC(=O)CC[C@]4(C)[C@@]3(F)[C@@H](O)C[C@@]21C
dose: 8.0 mg/kg/injection, schedule: Q01DX009 (ip), vehicle: saline with Tween-80
  T/C: 100 % of control and 105 % of control
dose: 16.0 mg/kg/injection, schedule: Q01DX009 (ip), vehicle: saline with Tween-80
  T/C: 91 % of control and 109 % of control
dose: 32.0 mg/kg/injection, schedule: Q01DX009 (ip), vehicle: saline with Tween-80
  T/C: 96 % of control and 106 % of control
dose: 64.0 mg/kg/injection, schedule: Q01DX009 (ip), vehicle: saline with Tween-80
  T/C: 95 % of control and 104 % of control
dose: 128.0 mg/kg/injection, schedule: Q01DX009 (ip), vehicle: saline with Tween-80
  T/C: 91 % of control and 104 % of control
dose: 256.0 mg/kg/injection, schedule: Q01DX009 (ip), vehicle: saline with Tween-80
  T/C: 96 % of control and 106 % of control
dose: 512.0 mg/kg/injection, schedule: Q01DX009 (ip), vehicle: saline with Tween-80
  T/C: 89 % of control and 104 % of control

## CCC1=C(c2ccc(OC)cc2)CCC(C(=O)O)C1C (stereo not given)
dose: 4.0 mg/kg/injection, schedule: Q01DX005 (ip), vehicle: saline
  T/C: 99 % of control and 104 % of control
dose: 8.0 mg/kg/injection, schedule: Q01DX005 (ip), vehicle: saline
  T/C: 95 % of control and 100 % of control
dose: 16.0 mg/kg/injection, schedule: Q01DX005 (ip), vehicle: saline
  T/C: 90 % of control and 98 % of control
dose: 32.0 mg/kg/injection, schedule: Q01DX005 (ip), vehicle: saline
  T/C: 96 % of control and 102 % of control

## O=C1C=C(N2CC2)C(=O)C=C1N1CC1
dose: 0.12 mg/kg/injection, schedule: Q01DX009 (ip), vehicle: saline
  T/C: 104 % of control and 105 % of control and 106 % of control
[4]
  T/C: 100 % of control and 101 % of control and 105 % of control
[5]
  T/C: 105 % of control and 107 % of control and 111 % of control
[1]
  T/C: 92 % of control and 93 % of control and 100 % of control

## COc1cc([C@@H]2c3cc4c(cc3[C@@H](OC3OC5CO[C@@H](c6cccs6)OC5C(O)C3O)[C@H]3COC(=O)[C@H]23)OCO4)cc(OC)c1O (stereo not given in full)
[4]
  T/C: 108 % of control
[5]
  T/C: 116 % of control
[2]
  T/C: 152 % of control
[3]
  T/C: 119 % of control

## CSCS(=O)C[C@H](CO)NC(=O)/C=C/c1c(C)[nH]c(=O)[nH]c1=O (stereo not given in full)
dose: 0.06 mg/kg/injection, schedule: Q01DX005 (ip), vehicle: Klucel (hydroxypropylcellulose) (HPC)
  T/C: 103 % of control and 104 % of control
dose: 0.12 mg/kg/injection, schedule: Q01DX005 (ip), vehicle: Klucel (hydroxypropylcellulose) (HPC)
  T/C: 101 % of control and 105 % of control
dose: 0.25 mg/kg/injection, schedule: Q01DX005 (ip), vehicle: Klucel (hydroxypropylcellulose) (HPC)
  T/C: 107 % of control and 110 % of control
dose: 0.5 mg/kg/injection, schedule: Q01DX005 (ip), vehicle: Klucel (hydroxypropylcellulose) (HPC)
  T/C: 106 % of control and 108 % of control
